Reference: patent US20050256037A1, “Antibacterial amide macrocyles” (Bayer HealthCare AG, priority 2003, published 2005)
In brackets after ≈: the same amount, converted by molar mass. Counter-ions that a name gives are not always drawn. Like-named read-outs stand apart in the source and are kept apart here.

What was measured:
[1] = tested on: E. faecium L4001; assay: MIC, liquid dilution test in minimal medium (96-well microtitre plate); assay type: cell-based; conditions: Enterococcus faecium
Description: (§1) Determination of the Minimum Inhibitory Concentration (MIC)
(§2) The minimum inhibitory concentration (MIC) is the minimum concentration of an antibiotic with which the growth of a test microbe is inhibited over 18-24 h. The inhibitor concentration can in these cases be determined by standard microbiological methods (see, for example, The National Committee for Clinical Laboratory Standards. Methods for dilution antimicrobial susceptibility tests for bacteria that grow aerobically; approved standard-fifth edition. NCCLS document M7-A5 [ISBN 1-56238-394-9]. NCCLS, 940 West Valley Road, Suite 1400, Wayne, Pa. 19087-1898 USA, 2000). The MIC of the compounds of the invention is determined in the liquid dilution test on the 96-well microtitre plate scale. The bacterial microbes are cultivated in a minimal medium (18.5 mM Na2HPO4, 5.7 mM KH2PO4, 9.3 mM NH4Cl, 2.8 mM MgSO4, 17.1 mM NaCl, 0.033 μg/ml thiamine hydrochloride, 1.2 μg/ml nicotinic acid, 0.003 μg/ml biotin, 1% glucose, 25 μg/ml of each proteinogenic amino acid with the exception of phenylalanine; [H.-P. Kroll; unpublished]) with addition of 0.4% BH broth (test medium). In the case of Enterococcus faecium L4001, heat-inactivated fetal calf serum (FCS; GibcoBRL, Germany) is added to the test medium in a final concentration of 10%. Overnight cultures of the test microbes are diluted to an OD578 of 0.001 (to 0.01 in the case of enterococci) in fresh test medium, and incubated 1:1 with dilutions of the test substances (1:2 dilution steps) in test medium (200 μl final volume). The cultures are incubated at 37° C. for 18-24 hours; enterococci in the presence of 5% CO2.
(§3) The lowest substance concentration in each case at which bacterial growth was no longer visible is defined as the MIC. […] The compounds show a graded antibacterial effect against most of the test microbes.

[2] = tested on: S. aureus E33; assay: as above; assay type: cell-based; conditions: Staphylococcus aureus
Description: as §1, §2, §3

[3] = target: S. aureus 133 Translation; assay: S. aureus in vitro transcription-translation assay (S30 extract, firefly luciferase reporter); assay type: biochemical
Source text: In vitro Transcription-Translation with S. aureus Extracts
Construction of an S. aureus Luciferase Reporter Plasmid
A reporter plasmid which can be used in an in vitro transcription-translation assay from S. aureus is constructed by using the plasmid pBESTluc (Promega Corporation, USA). The E. coli tac promoter present in this plasmid in front of the firefly luciferase is replaced by the capA1 promoter with appropriate Shine-Dalgarno sequence from S. aureus. The primers CAPFor 5′-CGGCCAAGCTTACTCGGAT-[…] […]-3′ and CAPRev 5′-[…]-3′ are used for this. The primer CAPFor contains the capA1 promoter, the ribosome binding site and the 5′ region of the luciferase gene. After PCR using pBESTluc as template it is possible to isolate a PCR product which contains the firefly luciferase gene with the fused capA1 promoter. This is, after restriction with ClaI and HindIII, ligated into the vector pBESTluc which has likewise been digested with ClaI and HindIII. The resulting plasmid pla is able to replicate in E. coli and be used as template in the S. aureus in vitro transcription-traslation assay.
Preparation of S30 Extracts from S. aureus
Six litres of BHI medium are inoculated with a 250 ml overnight culture of an S. aureus strain and allowed to grow at 37° C. until the OD600 run is 2-4. The cells are harvested by centrifugation and washed in 500 ml of cold buffer A (10 mM Tris acetate, pH 8.0, 14 mM Magnesium acetate, 1 mM DTT, 1 M KCl). After renewed centrifugation, the cells are washed in 250 ml of cold buffer A with 50 mM KCl, and the resulting pellets are frozen at −20° C. for 60 min. The pellets are thawed on ice in 30 to 60 min and taken up to a total volume of 99 ml in buffer B (10 mM Tris acetate, pH 8.0, 20 mM Magnesium acetate, 1 mM DTT, 50.mM KCl). 1.5 ml portions of lysostaphin (0.8 mg/ml) in buffer B are introduced into 3 precooled centrifuge cups and each mixed with 33 ml of the cell suspension. The samples are incubated at 37° C., shaking occasionally, for 45 to 60 min, before 150 μl of a 0.5 M DTT solution are added. The lysed cells are centrifuged at 30 000×g and 4° C. for 30 min. The cell pellet is taken up in buffer B and then centrifuged again under the same conditions, and the collected supernatants are combined. The supernatants are centrifuged again under the same conditions, and 0.25 volume of buffer C (670 mM Tris acetate, pH 8.0, 20 mM Magnesium acetate, 7 mM Na3 phosphoenolpyruvate, 7 mM DTT, 5.5 mM ATP, 70 μM amino acids (complete from Promega), 75 μg of pyruvate kinase (Sigma, Germany)/ml are added to the upper ⅔ of the supernatant. The samples are incubated at 37° C. for 30 min. The supernatants are dialysed against 2 l of dialysis buffer (10 mM Tris acetate, pH 8.0, 14 mM Magnesium acetate, 1 mM DTT, 60 mM Potassium acetate) in a dialysis tube with a 3500 Da cut-off with one buffer change at 4° C. overnight. The dialysate is concentrated to a protein concentration of about 10 mg/ml by covering the dialysis tube with cold PEG 8000 powder (Sigma, Germany) at 4° C. The S30 extracts can be stored in aliquots at −70° C.
Determination of the IC50 in the S. aureus in vitro Transcription-Translation Assay Inhibition of protein biosynthesis of the compounds can be shown in an in vitro transcription-translation assay. The assay is based on the cell-free transcription and translation of firefly luciferase using the reporter plasmid pla as template and cell-free S30 extracts obtained from S. aureus. The activity of the resulting luciferase can be detected by luminescence measurement.
The amount of S30 extract or plasmid pla to be employed must be tested anew for each preparation in order to ensure an optimal concentration in the assay. 3 μl of the substance to be tested, dissolved in 5% DMSO, are introduced into an MTP. Then 10 μl of a suitably concentrated plasmid solution pla are added. […]

[4] = L4001, read-out: MIC E. faecium L4001
[5] = E33, read-out: MIC S. aureus E33

In the case of `CN1C(=O)[C@H](C[C@@H](O)CN)NC(=O)[C@@H](N)Cc2cc(ccc2O)-c2ccc(O)c(c2)C[C@H]1C(=O)NCCN` [Example 1, (8S,11S,14S)-14-amino-N-(2-aminoethyl)-11-[(2R)-3-amino-2-hydroxypropyl]-5,17-dihydroxy-9-methyl-10,13-dioxo-9,12-diazatricyclo[14.3.1.1.^2,6]henicosa-1(20),2(21),3,5,16,18-hexaene-8-carboxamide, trihydrochloride], the MIC [1, 4] is reported as 12.5 µM, the MIC [2, 5] is reported as 3.1 µM and the IC50 ([3]; Table A) is reported as 0.1 µM. The IC50 ([3]; Table B) was 0.1 µM.

In the case of `NCCC[C@@H]1NC(=O)[C@@H](N)Cc2cc(ccc2O)-c2ccc(O)c(c2)C[C@@H](C(=O)NCCN)NC1=O` [Example 6, (8S,11S,14S)-14-amino-N-(2-aminoethyl)-11-(3-aminopropyl)-5,17-dihydroxy-10,1 3-dioxo-9,12-diazatricyclo[14.3.1.1^2,6]henicosa-1(20),2(21),3,5,16,18-hexaene-8-carboxamide], the MIC [1, 4] is reported as > 50 µM, the MIC [2, 5] is reported as 3.1 µM (≈ 1.55 µg/mL) and the IC50 ([3]; Table A) is reported as 0.5 µM. The IC50 ([3]; Table B) was 0.5 µM.

For `NC[C@H](O)C[C@@H]1NC(=O)[C@@H](N)Cc2cc(ccc2O)-c2ccc(O)c(c2)C[C@@H](C(=O)O)NC1=O` [Example 20A, 14(S)-Amino-1(S)-(3-amino-2(R)-hydroxypropyl)-5,17-dihydroxy-10,13-dioxo-9,12-diazatricyclo[14.3.1.1^2,6]henicosa-1(19),2,4,6(21),16(20),17-hexaene-8(S)-carboxylic acid dihydrochloride, reference compound], the MIC ([1]; L4001, Table A, liquid dilution, 10% FCS, 5% CO2, read-out: MIC E. faecium L4001) was > 25 µM, the MIC ([2]; E33, Table A, liquid dilution, 18-24 h, 37° C., read-out: MIC S. aureus E33) was 0.1 µM and the IC50 ([3]; Table A) was 1.5 µM. For the same compound, the IC50 ([3]; Table B) was 1.5 µM.
